Entries after “also recorded” stand apart in the source; their conditions may differ. One block for each compound: values may come before it.
Experiments:
[1] = tested on: MIAPACA2 and PATU8902 xenografts; test: PDAC pancreas orthotopic xenografts in athymic nude mice; type: in vivo
Procedure: Pancreas orthotopic xenografts were established as follows. In brief, 6-week-old female immunocompromised athymic nude mice (CrTac:NCr-Foxnlnu) were orthotopically injected with tumor cells into the pancreas. Mice were anaesthetized with ketamine (120 mg kg−1) and xylazine (10 mg kg−1) before surgery. MIAPACA2 or PATU-8902 ([…]) were suspended in 20 μl of 50% growth factor-reduced Matrigel (BD Science), and injected into the pancreas. Mice were treated with buprenorphine every 12 h after surgery for 48 h. […] Both compounds were dissolved into mice water every day to avoid degradation. Mice were sacrificed when tumor development led to significant deterioration of their condition.

[2] = tested on: MIAPACA2 and PATU-8902 cells; test: 3D growth assay (CyQUANT) in MIAPACA2 and PATU-8902 cells; type: cell-based; conditions: 3 days
Procedure: (§1) 2,500 cells were seeded into a low-attachment 96-well plate containing DMEM+10% dialysed FBS and 3% Matrigel. […] To measure 3D growth with the CyQUANT Cell Proliferation Assay kit, plates were frozen at −80° C., thawed at room temperature, and equal volumes of 2× CyQUANT reagent+lysis buffer was added to the wells. As a control, wells containing medium and no cells were used as blanks. CyQUANT measurements were performed as described in the manufacturer's instructions.
as §1, with “2×CyQUANT” for “2× CyQUANT”, “Wells” for “As a control, wells”, “blanks.” for “blanks. CyQUANT measurements were performed as described in the manufacturer's instructions.”

C57BL/6 pups = test: Pup survival after daily oral gavage; type: in vivo
cells = test: Cellular uptake of 4-HMA and incorporation into CoQ10; type: cell-based
[3] = molecular target: T1, human His-tagged HPDL (4-hydroxyphenylpyruvate dioxygenase-like), recombinant, from expiSF9 insect cells (Homo sapiens, UniProt Q96IR7); test: Inhibition of HPDL activity: His-tagged HPDL incubated with HPPA at various inhibitor concentrations, 4HMA production followed by GC-MS; type: biochemical
T1 construct: His tag; made in house; host or cells: expiSF9 insect cells (virus infection)
T1 sequence (Q96IR7 1-371): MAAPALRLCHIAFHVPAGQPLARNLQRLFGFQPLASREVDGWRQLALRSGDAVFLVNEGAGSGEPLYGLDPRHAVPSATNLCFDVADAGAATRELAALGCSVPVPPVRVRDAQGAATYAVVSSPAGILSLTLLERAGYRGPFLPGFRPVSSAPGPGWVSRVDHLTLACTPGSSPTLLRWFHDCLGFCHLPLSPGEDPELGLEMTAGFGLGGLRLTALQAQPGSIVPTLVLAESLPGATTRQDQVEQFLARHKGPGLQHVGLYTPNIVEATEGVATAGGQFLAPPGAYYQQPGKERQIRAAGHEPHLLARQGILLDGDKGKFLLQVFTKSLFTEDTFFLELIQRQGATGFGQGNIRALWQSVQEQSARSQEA
From the text: The four curves in Panel (A) represent dose-response curves for, from left to right, ibuprofen, dopamine, montelukast, and methyldopa, respectively.
A culture of expiSF9 cells (5×10^6 viable cells/mL and ≥90% viability) were infected with high-titer virus (human His-tagged HPDL).

HPDL = molecular target: T2, HPDL (Homo sapiens, UniProt Q96IR7); test: Fluorescence based thermal shift assay (FTS) on purified HPDL; type: binding; conditions: 10 μM compound, 1 μM HPDL
T2 construct: His tag; made in house; host or cells: expiSF9 insect cells (inferred: the only HPDL preparation described)
T2 sequence (Q96IR7 1-371): T1 sequence (Q96IR7 1-371)
Procedure: This experiment evaluates an FDA approved library of small molecules by thermal shift in order to identify binders of HPDL. Fluorescence based thermal shift assay (FTS) was conducted on Bio-Rad real time PCR detection system. A total of 20 μL/well solution was prepared containing 1 μM HPDL, 2× fluorescent dye (Applied Biosystems, Life Technologies) and small molecules at […] concentration in buffer (50 mM HEPES pH 7.5 and 20 μM FeSO4). The plate was heated at 1% of ramp rate (−1.5° C./min) from 25 to 95° C., and Rox was selected as reporter for detection of fluorescence intensity. The melting temperature was recorded for every compound and compared to the reference HPDL melting temperature.
This experiment evaluates if COX inhibition is responsible for the decrease of cell growth in 3D. The ability of aspirin, another COX inhibitor, to bind HPDL was evaluated using thermal shift assay. Fluorescence based thermal shift assay (FTS) was conducted on Bio-Rad real time PCR detection system. […] The plate was heated at 1% of ramp rate (˜1.5° C./min) from 25 to 95° C., and Rox was selected as reporter for detection of fluorescence intensity. The melting temperature was recorded for every compound and compared to the reference HPDL melting temperature.

MIAPACA2 cells = test: 3D growth assay (CyQUANT) in MIAPACA2 cells, ibuprofen vs aspirin; type: cell-based; conditions: 100 uM added daily, 3 days
Procedure: (§2) This experiment evaluates if COX inhibition is responsible for the decrease of cell growth in 3D. The ability of aspirin, another COX inhibitor, to affect cell growth of HPDL-dependent cell lines in 3D was evaluated. 2,500 cells were seeded into a low-attachment 96-well plate containing DMEM+10% dialysed FBS and 3% Matrigel. […] To measure 3D growth with the CyQUANT Cell Proliferation Assay kit, plates were frozen at −80° C., thawed at room temperature, and equal volumes of 2× CyQUANT reagent+lysis buffer was added to the wells. Wells containing medium and no cells were used as blanks.

His-tagged HPDL = molecular target: T3, His-tagged HPDL (Homo sapiens, UniProt Q96IR7); conditions: for compound amount at 50% activity level (rank among the four dose-response curves): FIG. 4(A) dose-response curves
T3 sequence (Q96IR7 1-371): T1 sequence (Q96IR7 1-371)

[4] = tested on: MIAPACA2 expressing control or HPDL sgRNA; test: 3D growth assay in MIAPACA2 expressing control or HPDL sgRNA, with or without coHPDL; type: cell-based; conditions: ibuprofen 100 uM added daily, 3 days
Procedure: as §2, with “HPDL” for “COX”, “inhibition in cells” for “inhibition”, “The ability of aspirin, another COX inhibitor, to affect cell growth of HPDL-dependent cell lines in 3D was evaluated.” left out

SMILES: O=C(O)C(O)c1ccc(O)cc1 (stereo not drawn) [4HMA, 4-hydroxymandelate]
rescue of ibuprofen-induced decrease of xenograft growth ([1]; 4HMA 10 mg/kg with ibuprofen 100 mg/kg in drinking water): can rescue this decrease
rescue of ibuprofen-induced decrease of 3D cell growth ([2]; ibuprofen 100 uM and 4HMA 1 mM added daily): rescues ibuprofen-induced decreases cell growth in 3D
rescue of ibuprofen-induced lethality (C57BL/6 pups; 4HMA 10 mg/kg with ibuprofen 200 mg/kg daily oral gavage): rescues ibuprofen-induced lethality in pups
uptake by cells and incorporation into CoQ10 (cells): readily taken up by cells and incorporated into CoQ10

IC50 [3]: > 100 µM
SMILES: CC(C)(O)c1ccccc1CC[C@@H](SCC1(CC(=O)O)CC1)c1cccc(/C=C/c2ccc3ccc(Cl)cc3n2)c1 [D00005 row 1, montelukast]

IC50 [3]: 41.3 µM
SMILES: NCCc1ccc(O)c(O)c1 [D00005 row 2, dopamine]

IC50 [3]: > 100 µM
SMILES: C[C@](N)(Cc1ccc(O)c(O)c1)C(=O)O [D00005 row 3, methyldopa]

SMILES: CC(C)Cc1ccc(C(C)C(=O)O)cc1 (stereo not drawn) [D00005 row 4, ibuprofen]
IC50 [3]: 16.6 µM

HPDL binding by thermal shift (HPDL): does not act HPDL binder
SMILES: CC(=O)Oc1ccccc1C(=O)O [aspirin]
3D cell growth (MIAPACA2 cells): does not affect cell growth of HPDL-dependent cell lines

inhibition of HPDL activity (His-tagged HPDL; 12 ng/μL HPDL, 10 μM HPPA, 1 h at 37° C., various inhibitor concentrations): inhibit the dioxygenase HPDL
compound amount at 50% activity level (rank among the four dose-response curves) (His-tagged HPDL): second least
SMILES: NCCc1ccc(O)c(O)c1 [dopamine]

SMILES: CC(C)Cc1ccc(C(C)C(=O)O)cc1 (stereo not drawn) [ibuprofen]
sensitivity of 3D growth to ibuprofen on HPDL deletion [4]: HPDL deletion reduces sensitivity to ibuprofen treatment in 3D
orthotopic pancreatic tumor growth (tumor weight) ([1]; ibuprofen 100 mg/kg in drinking water): affects the growth of HPDL-dependent PDAC orthotopic xenografts
compound amount at 50% activity level (rank among the four dose-response curves) (His-tagged HPDL): least
3D cell growth ([2]; ibuprofen 100 uM added daily): selectively decreases cell growth of HPDL-dependent cell lines in 3D
3D cell growth (MIAPACA2 cells): affects cell growth of HPDL-dependent cell lines in 3D
pup development and survival (C57BL/6 pups; ibuprofen 200 mg/kg daily oral gavage, started at 3, 5 and 10 days): affects the development of pups; also recorded: ibuprofen-induced lethality in pups

— US20250170082A1, “HPDL INHIBITORS AND USES THEREOF” (NEW YORK UNIVERSITY, priority 2022, published 2025)
